Source: US20250154173A1 (Merck Sharp & Dohme LLC, priority 2023, published 2025)

target: T1, GST-RIPK1 (recombinant GST-RIPK1 kinase domain (residues 1-327)) (Homo sapiens, UniProt Q13546); assay: RIPK1-ADP-Glo Enzymatic Assay; type: biochemical; conditions: ten-point titration, top compound concentration of 100000 nM; 25 nM GST-RIPK1, 300 μM ATP, 3 μM dephosphorylated-MBP; 30 min pre-incubation, 150 min reaction
T1 construct: recombinant GST-RIPK1 kinase domain (residues 1-327) enzyme produced from baculovirus-transfected Sf21 cells; host or cells: baculovirus-transfected Sf21 insect cells
T1 sequence (Q13546 1-327): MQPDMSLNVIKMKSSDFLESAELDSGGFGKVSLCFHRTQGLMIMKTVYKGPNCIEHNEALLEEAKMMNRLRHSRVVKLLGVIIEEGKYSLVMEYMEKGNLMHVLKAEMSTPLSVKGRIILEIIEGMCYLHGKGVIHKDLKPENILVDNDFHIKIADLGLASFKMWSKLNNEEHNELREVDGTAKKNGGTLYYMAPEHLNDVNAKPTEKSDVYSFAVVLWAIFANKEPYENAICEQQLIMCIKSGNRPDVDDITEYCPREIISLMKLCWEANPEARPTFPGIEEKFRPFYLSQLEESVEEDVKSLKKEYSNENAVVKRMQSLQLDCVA
Description: RIPK1-ADP-Glo Enzymatic Assay
The enzymatic activity of RIPK1 is measured using an assay derived from ADP-Glo kit (TMPromega), which provides a luminescent-based ADP detection system. Specifically, the ADP generated by RIPK1 kinase is proportionally detected as luminescent signals in a homogenous fashion. In this context, the assessment of the inhibitory effect of small molecules (EC50) is measured by the effectiveness of the compounds to inhibit the ATP to ADP conversion by RIPK1.
In this assay, the potency (EC50) of each compound was determined from a ten-point (1:3 serial dilution; top compound concentration of 100000 nM) titration curve using the following outlined procedure. To each well of a white ProxiPlus 384 well-plate, 30 nL of compound (1% DMSO in final assay volume of 3 μL) was dispensed, followed by the addition of 2 μL of 1× assay buffer (25 mM Hepes 7.3, 20 mM MgCl2, 50 mM NaCl, 1 mM DTT, 0.005% Tween20, and 0.02% BSA) containing 37.5 nM of GST-RIPK1 (recombinant GST-RIPK1 kinase domain (residues 1-327) enzyme produced from baculovirus-transfected Sf21 cells: MW=62 kDa). Plates were placed in an ambient temperature humidified chamber for a 30 minutes pre-incubation with compound. Subsequently, each reaction was initiated by the addition of 1 μL 1× assay buffer containing 900 μM ATP and 3 μM dephosphorylated-MBP substrate. The final reaction in each well of 3 μL consists of 25 nM of GST-RIPK1, 300 μM ATP, and 3 μM dephosphorylated-MBP. Kinase reactions were allowed to proceed for 150 minutes prior to adding ADP-Glo reagents per Promega's outlined kit protocol. Dose-response curves were generated by plotting percent effect (% product conversion; Y-axis) vs. Log 10 compound concentrations (X-axis). EC50 values were calculated using a non-linear regression, four-parameters sigmoidal dose-response model.

EC50 [nM] | Structure (SMILES)
52 | O=C1N2C(CC[C@H]2c2cnccn2)OC12CC(OCc1cnn(-c3ccccc3)c1)C2 (stereo partly drawn) [Example 18.7, (5′S)-3-[(1-phenyl-1H-pyrazol-4-yl)methoxy]-5′-(pyrazin-2-yl)tetrahydro-3′H-spiro[cyclobutane-1,2′-pyrrolo [2,1-b][1,3]oxazol]-3′-one]
209 | Cn1ccc([C@@H]2CC[C@H]3OC4(CC(Oc5cccnc5)C4)C(=O)N32)n1 (stereo partly drawn) [Example 19.11, (5′S,7a′R)-5′-(1-methyl-1H-pyrazol-3-yl)-3-[(pyridin-3-yl)oxy]tetrahydro-3′H-spiro[cyclobutane-1,2′-pyrrolo[2,1-b][1,3]oxazol]-3′-one]
24 | O=C1N2[C@@H](CC[C@H]2c2cc(F)cc(F)c2)O[C@]12C[C@H](Oc1cc(-c3cnn(C(F)F)c3)ncn1)C2 [Example 9.54, (5′S,7a′R)-3-((6-(1-(difluoromethyl)-1H-pyrazol-4-yl)pyrimidin-4-yl)oxy)-5′-(3,5-difluorophenyl)tetrahydro-3′H-spiro[cyclobutane-1,2′-pyrrolo[2,1-b]oxazol]-3′-one]
19 | CC(OC1CC2(C1)OC1CCC(c3cc(F)cc(F)c3)N1C2=O)c1ccccc1 (single isomer, unassigned) [Example 15.4, ((1R or S),3R,5′S,7a′R)-5′-(3,5-difluorophenyl)-3-((R or S)-1-phenylethoxy)tetrahydro-3′H-spiro[cyclobutane-1,2′-pyrrolo[2,1-b]oxazol]-3′-one]
128 | O=C1N2C(CC[C@H]2c2cnccn2)OC12CC(OCc1cnc3nccn3c1)C2 (stereo partly drawn) [Example 18.46, (5′S)-3-[(imidazo[1,2-a]pyrimidin-6-yl)methoxy]-5′-(pyrazin-2-yl)tetrahydro-3′H-spiro[cyclobutane-1,2′-pyrrolo[2,1-b][1,3]oxazol]-3′-one]
11 | O=C1N2[C@@H](CC[C@H]2c2ccccc2)OC12CC(Oc1cccc(F)c1)C2 (stereo partly drawn) [Example 8.10, (5′S,7a′R)-3-(3-fluorophenoxy)-5′-phenyltetrahydro-3′H-spiro[cyclobutane-1,2′-pyrrolo[2,1-b][1,3]oxazol]-3′-one]
210 | N#Cc1cccc(F)c1COC1CC2(C1)OC1CC[C@@H](c3cnccn3)N1C2=O (stereo partly drawn) [Example 18.51, 3-fluoro-2-({[(5′S)-3′-oxo-5′-(pyrazin-2-yl)tetrahydro-3′H-spiro[cyclobutane-1,2′-pyrrolo[2,1-b][1,3]oxazol]-3-yl]oxy}methyl)benzonitrile]
254 | O=C1N2[C@@H](CC[C@H]2c2ccccc2)OC12CC(Oc1cccc3cnoc13)C2 (some centres unmarked) [Example 8.19]
53 | N#Cc1ccnc(O[C@H]2C[C@@]3(C2)O[C@@H]2CC[C@@H](c4cc(F)cc(F)c4)N2C3=O)n1 [Example 9.20, 2-{[(1r,3R,5′S,7a′R)-5′-(3,5-difluorophenyl)-3′-oxotetrahydro-3′H-spiro[cyclobutane-1,2′-pyrrolo[2,1-b][1,3]oxazol]-3-yl]oxy}pyrimidine-4-carbonitrile]
29 | N#Cc1ccc(COC2CC3(C2)O[C@@H]2CC[C@@H](c4cnccn4)N2C3=O)cc1 (single isomer, unassigned) [Example 22.7, 4-({[(5′S,7a′R)-3′-oxo-5′-(pyrazin-2-yl)tetrahydro-3′H-spiro[cyclobutane-1,2′-pyrrolo[2,1-b][1,3]oxazol]-3-yl]oxy}methyl)benzonitrile]
179 | O=C1N2[C@@H](CC[C@H]2c2cnccn2)OC12CC(OCc1ccnc3nncn13)C2 (stereo partly drawn) [Example 20.4, (5′S,7a′R)-5′-(pyrazin-2-yl)-3-[([1,2,4]triazolo[4,3-a]pyrimidin-5-yl)methoxy]tetrahydro-3′H-spiro[cyclobutane-1,2′-pyrrolo[2,1-b][1,3]oxazol]-3′-one]
353 | N#Cc1cc(O[C@H]2C[C@]3(C2)O[C@@H]2CC[C@@H](c4ccccc4F)N2C3=O)ncn1 [Example 9.43, 6-{[(5′S,7a′R)-5′-(2-fluorophenyl)-3′-oxotetrahydro-3′H-spiro[cyclobutane-1,2′-pyrrolo[2,1-b][1,3]oxazol]-3-yl]oxy}pyrimidine-4-carbonitrile]
20 | NC(=O)c1ccnc(O[C@H]2C[C@@]3(C2)O[C@@H]2CC[C@@H](c4ccccc4)N2C3=O)c1 [Example 10.5, 2-(((1r,3R,5′S,7a′R)-3′-oxo-5′-phenyltetrahydro-3′H-spiro[cyclobutane-1,2′-pyrrolo[2,1-b]oxazol]-3-yl)oxy)isonicotinamide]
474 | Cn1ccc([C@@H]2CC[C@H]3OC4(CC(Oc5cccnc5)C4)C(=O)N32)n1 (stereo partly drawn) [Example 19.8, (5′S,7a′R)-5′-(1-methyl-1H-pyrazol-3-yl)-3-[(pyridin-3-yl)oxy]tetrahydro-3′H-spiro[cyclobutane-1,2′-pyrrolo[2,1-b][1,3]oxazol]-3′-one]
124 | Cn1ccc([C@@H]2CC[C@H]3OC4(CC(Oc5cnccn5)C4)C(=O)N32)n1 (stereo partly drawn) [Example 9.64, (5′S,7a′R)-5′-(1-methyl-1H-pyrazol-3-yl)-3-[(pyrazin-2-yl)oxy]tetrahydro-3′H-spiro[cyclobutane-1,2′-pyrrolo[2,1-b][1,3]oxazol]-3′-one]
284 | CC(OC1CC2(C1)O[C@@H]1CC[C@@H](c3cc(F)cc(F)c3)N1C2=O)c1ccccc1 (single isomer, unassigned) [Example 15.1, ((1S or R),3R,5′S,7a′R)-5′-(3,5-difluorophenyl)-3-((S or R)-1-phenylethoxy)tetrahydro-3′H-spiro[cyclobutane-1,2′-pyrrolo[2,1-b]oxazol]-3′-one]
27 | O=C1N2[C@@H](CC[C@H]2c2ccc(F)cc2)O[C@]12C[C@H](Oc1cc(-c3nn[nH]n3)ccn1)C2 [Example 10.7, (1r,3R,5′S,7a′R)-3-((4-(2H-tetrazol-5-yl)pyridin-2-yl)oxy)-5′-(4-fluorophenyl)tetrahydro-3′H-spiro[cyclobutane-1,2′-pyrrolo[2,1-b]oxazol]-3′-one]
20 | O=C1N2[C@@H](CC[C@H]2c2ccc(F)cc2)O[C@]12C[C@H](Oc1cncc(F)c1)C2 [Example 9.48, (1r,3R,5′S,7a′R)-5′-(4-fluorophenyl)-3-[(5-fluoropyridin-3-yl)oxy]tetrahydro-3′H-spiro[cyclobutane-1,2′-pyrrolo[2,1-b][1,3]oxazol]-3′-one]
12 | O=C1N2[C@@H](CC[C@H]2c2cc(F)cc(F)c2)O[C@]12C[C@H](Oc1ncnn3c(Br)ccc13)C2 [Example 11.1, (1r,3R,5′S,7a′R)-3-((7-bromopyrrolo[2,1-f][1,2,4]triazin-4-yl)oxy)-5′-(3,5-difluorophenyl)tetrahydro-3′H-spiro[cyclobutane-1,2′-pyrrolo[2,1-b]oxazol]-3′-one]
96 | O=C1N2C(CC[C@H]2c2cnccn2)OC12CC(OCc1cnn(-c3ccncc3)c1)C2 (stereo partly drawn) [Example 18.52, (5′S)-5′-(pyrazin-2-yl)-3-{[1-(pyridin-4-yl)-1H-pyrazol-4-yl]methoxy}tetrahydro-3′H-spiro[cyclobutane-1,2′-pyrrolo[2,1-b][1,3]oxazol]-3′-one]
91 | O=C1N2[C@@H](CC[C@H]2c2cnccn2)OC12CC(OCc1ccnc3ccnn13)C2 (stereo partly drawn) [Example 18.60, (5′S)-5′-(pyrazin-2-yl)-3-[(pyrazolo[1,5-a]pyrimidin-7-yl)methoxy]tetrahydro-3′H-spiro[cyclobutane-1,2′-pyrrolo[2,1-b][1,3]oxazol]-3′-one]
329 | N#Cc1ccncc1COC1CC2(C1)OC1CC[C@@H](c3cnccn3)N1C2=O (stereo partly drawn) [Example 18.93, 3-({[(5′S)-3′-oxo-5′-(pyrazin-2-yl)tetrahydro-3′H-spiro[cyclobutane-1,2′-pyrrolo[2,1-b][1,3]oxazol]-3-yl]oxy}methyl)pyridine-4-carbonitrile]

Structure (SMILES) | EC50 [nM]
O=C1N2C(CC[C@H]2c2cnccn2)OC12CC(OCc1cc(Cl)ccc1-c1cnco1)C2 (stereo partly drawn) [Example 18.33, (5′S)-3-{[5-chloro-2-(1,3-oxazol-5-yl)phenyl]methoxy}-5′-(pyrazin-2-yl)tetrahydro-3′H-spiro[cyclobutane-1,2′-pyrrolo[2,1-b][1,3]oxazol]-3′-one] | 43
